# Results taken from PMC10778824, “New Chalcone Derivatives Containing 2,4-Dichlorobenzenesulfonamide Moiety with Anticancer and Antioxidant Properties” (International Journal of Molecular Sciences, 2023).
# How the values were obtained:
# [1] = tested on: gastric adenocarcinoma AGS; assay: MTT assay, AGS cells; type: cell-based, human; settings: for IC50: Homo sapiens, AGS, 24 h; for selectivity index AGS: SI = IC50 noncancer cells/IC50 cancer cells, in relation to human neonatal fibroblasts
# Description: (§1) The human gastric adenocarcinoma AGS, cervical cancer HeLa, and acute promyelocytic leukemia HL-60 cells were obtained from the American Type Culture Collection (ATCC, Manassas, VA, USA). Human neonatal fibroblasts were obtained from LGC Standards (Luckenwalde, Germany). The HeLa and AGS lines were cultured in Dulbecco’s modified Eagle’s medium (DMEM) and DMEM/F12 medium, respectively. The HL-60 line was maintained in RPMI-1640 medium. Fibroblasts were cultured in Fibroblast Growth Medium with Supplement Mix. All the media were supplemented with 100 units/mL of penicillin, 100 µg/mL of streptomycin, and 10% (v/v) fetal bovine serum (FBS) (Merck Millipore, Burlington, MA, USA). The cells were incubated at 37 °C and 5% CO2.
# (§2) To estimate the cytotoxic effect of the five compounds (4–8), MTT (3-(4,5-dimethylthiazol-2-yl)-2,5-diphenyltetrazolium bromide) assay was used. Oxaliplatin was used as a positive control in this test. All the cell lines were seeded in 96-well plates at a density of 5 × 10^3 cells/well and treated for 24 h with the compounds at concentrations of 0.5–40 µg/mL. Oxaliplatin was tested in the range of 20–400 µg/mL (50–1000 µM). After treatment, the cells were incubated with MTT (0.5 mg/mL; Merck Millipore, Burlington, MA, USA) for 3 h. Then, DMSO was used to dissolve formazan crystals, and the absorbance of the formazan solution was measured with a plate reader (Epoch, BioTek Instruments, Santa Clara, CA, USA). All the results (±standard deviation (SD)) were obtained from six repetitions in at least two independent experiments. The data are expressed as IC50 values (µg/mL).
# [2] = tested on: human neonatal fibroblasts; assay: MTT assay, noncancerous fibroblasts; type: cell-based; settings: 24 h treatment; for IC50: Homo sapiens, Fibroblast
# Description: as §1, §2
# cervical cancer HeLa = assay: MTT assay, HeLa cells; type: cell-based, human; settings: for IC50: Homo sapiens, HeLa; for selectivity index HeLa: SI = IC50 noncancer cells/IC50 cancer cells, in relation to human neonatal fibroblasts
# Description: as §1, §2
# caspase-8 = assay: Caspase-Glo 8 activity assay in AGS cells; type: cell-based, human; settings: 20 µg/mL
# Description: (§3) The AGS cells were seeded in a 96-well plate (5 × 10^3 cells/well) and treated with compound 5 at concentrations of 1, 5, 7, and 10 µg/mL for 24 h; oxaliplatin at the concentration of 20 µg/mL; and DMSO (1%, v/v). The cells were then treated with reagents from Caspase-Glo 8 Assay or Caspase-Glo 9 Assay (Promega, Madison, WI, USA) and measured with the luminometer Glomax Multi + Detection System (Promega, Madison, WI, USA). The experiments were performed in two independent repeats in three repetitions.
# AGS cells [3] = assay: Cell cycle analysis (propidium iodide); type: cell-based, human; settings: 40 µg/mL
# Description: The AGS cells were seeded in a 6-well plate (5 × 10^5 cells/well) and incubated with compound 5 at concentrations of 1, 5, and 10 µg/mL for 48 h; oxaliplatin at the concentration of 40 µg/mL; and DMSO (0.2%, v/v). After treatment, the cells were stained with propidium iodide from the Muse Cell Cycle Assay Kit (Merck Millipore, Burlington, MA, USA), and the amount of cells in each phase of the cell cycle was determined using the Muse Cell Analyzer (Merck Millipore, Burlington, MA, USA). The experiment was independently repeated three times.
# AGS cells [4] = assay: MitoPotential assay (mitochondrial membrane depolarization); type: cell-based, human; settings: 40 µg/mL, 5 h
# Description: The AGS cells were seeded in a 12-well plate (1 × 10^5 cells/well) and incubated with compound 5 at concentrations of 1, 5, and 10 µg/mL; oxaliplatin at the concentration of 40 µg/mL; and DMSO (0.2%, v/v). After 5 h of exposure, the cells were stained with the Muse MitoPotential Assay Kit (Merck Millipore, Burlington, MA, USA) and analyzed with the Muse Cell Analyzer (Merck Millipore, Burlington, MA, USA). The percentage of depolarized live and dead cells was estimated in the experiments, which were independently repeated three times.
# caspase-9 = assay: Caspase-Glo 9 activity assay in AGS cells; type: cell-based, human; settings: 20 µg/mL
# Description: as §3
# [5] = tested on: Bacillus cereus PCM 1948,2019 (ATCC11778); assay: MIC determination; type: cell-based; settings: 37 °C, 48 h
# Description: (§4) The MIC determinations for Staphylococcus epidermidis ATCC14990, Staphylococcus aureus ATCC6538, Enterococcus faecalis ATCC51299, Klebsiella pneumoniae ATCC13883, Escherichia coli ATCC8739, Salmonella enterica ATCC13076, Helicobacter pylori ATCC43504, Campylobacter jejuni ZMF, Campylobacter coli ZMF, Bacillus cereus PCM 1948,2019 (ATCC11778), and Listeria monocytogenes PCM2191 were performed based on the methodology described by Krauze-Baranowska et al.. The procedure for H. pylori was used in the experiments with Campylobacter strains, and the procedure for B. subtilis was used in the experiments with L. monocytogenes and B. cereus. The tested samples were dissolved in DMSO and diluted with water (concentration of approximately 500 μg/mL). The solutions were diluted geometrically by transferring the mixture/dilution (100 μL) from the first to the twelfth well of the microtiter plate. The final concentrations of samples used for antimicrobial effects ranged from 500 to 0.006 µg/mL. Ampicillin was used as a reference compound in the concentration range of 128 to 0.0625 µg/mL. The tests were incubated at 37 °C for 48 h. The diluent concentration had no effect on the activity of the tested compounds. All experiments were performed in triplicate.
# [6] = tested on: Klebsiella pneumoniae ATCC13883; assay: MIC determination; type: cell-based; settings: 37 °C, 48 h
# Description: as §4
# [7] = tested on: Listeria monocytogenes PCM2191; assay: MIC determination; type: cell-based; settings: 37 °C, 48 h
# Description: as §4
# [8] = tested on: Escherichia coli ATCC8739; assay: MIC determination; type: cell-based; settings: 37 °C, 48 h
# Description: as §4
# Campylobacter coli ZMF = assay: MIC determination; type: cell-based; settings: 37 °C, 48 h
# Description: as §4
# Campylobacter jejuni ZMF = assay: MIC determination; type: cell-based; settings: 37 °C, 48 h
# Description: as §4
# [9] = tested on: Helicobacter pylori ATCC43504; assay: MIC determination; type: cell-based; settings: 37 °C, 48 h
# Description: as §4
# [10] = tested on: Staphylococcus aureus ATCC6538; assay: MIC determination; type: cell-based; settings: 37 °C, 48 h
# Description: as §4
# [11] = tested on: Staphylococcus epidermidis ATCC14990; assay: MIC determination; type: cell-based; settings: 37 °C, 48 h
# Description: as §4
# [12] = tested on: Enterococcus faecalis ATCC51299; assay: MIC determination; type: cell-based; settings: 37 °C, 48 h
# Description: as §4
# [13] = tested on: Salmonella enterica ATCC13076; assay: MIC determination; type: cell-based; settings: 37 °C, 48 h
# Description: as §4
# [14] = tested on: acute promyelocytic leukemia HL-60; assay: MTT assay, HL-60 cells; type: cell-based, human; settings: for IC50: Homo sapiens, HL-60, 24 h; for selectivity index HL-60: SI = IC50 noncancer cells/IC50 cancer cells, in relation to human neonatal fibroblasts
# Description: as §1, §2
# neutrophil elastase = biological target: T1, neutrophil elastase (Sus scrofa, UniProt P00772); assay: Elastase assay (SANA substrate); type: biochemical, porcine; settings: Tris-HCl pH 8.0, SANA substrate; read-out: neutrophil elastase inhibition IC50 (converted)
# T1 construct: purchased Sigma Chemical Co. (St. Louis, MO, USA)
# Description: The elastase analysis was performed according to the spectrophotometric method with oleanolic acid as a reference. The reaction mixture (Tris-HCl buffer (pH 8.0), 1.0 μg/mL porcine pancreatic elastase, and different concentrations of chalcone derivatives was preincubated at room temperature for 15 min. Afterwards, the addition of the substrate—SANA—started the reaction. Product formation changes were analyzed at λ = 410 nm for 20 min every 20 s (Epoch, BioTek Instruments, Santa Clara, CA, USA). The control was composed of Tris-HCl buffer (pH 8.0), an appropriate concentration of the chalcone derivative, and SANA.
# [15] = tested on: cancer cells (HeLa, HL-60, AGS); assay: MTT assay, cancer cells taken together; type: cell-based, human; settings: HL-60 and AGS together
# Description: as §1, §2
# [16] = DPPH radical scavenging assay; settings: concentration of 800 µg/mL
# Description: The DPPH radical scavenging assay of samples (ligands or complexes) was performed with ascorbic acid as a standard. Different concentrations of chalcone derivatives, dissolved in DMSO, were mixed with the same amount of 0.06 mM DPPH methanolic solution and incubated at room temperature in the dark for 30 min. The absorbance was analyzed at λ = 517 nm using a 96-well microplate reader (Epoch, BioTek System, Winooski, VT, USA). The control was composed of DPPH and DMSO. DPPH inhibition was calculated according to the following Formula (2):DPPH Inhibition (%) = [(Acontrol − Asample)/Acontrol] × 100%(2)
# T1 sequence (P00772 27-266): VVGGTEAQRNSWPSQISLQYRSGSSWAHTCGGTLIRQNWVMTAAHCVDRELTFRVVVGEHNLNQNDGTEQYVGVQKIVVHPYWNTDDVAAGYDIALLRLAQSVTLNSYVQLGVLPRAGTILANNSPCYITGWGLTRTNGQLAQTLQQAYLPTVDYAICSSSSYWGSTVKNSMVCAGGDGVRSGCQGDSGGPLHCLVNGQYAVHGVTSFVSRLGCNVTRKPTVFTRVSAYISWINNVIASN
structure (smiles),measurement,setting,value
"O=C1[O][Pt]2([NH][C@@H]3CCCC[C@H]3[NH]2)[O]C1=O [Oxaliplatin, reference compound]",IC50 AGS,"[1]; MTT, 24 h treatment",17.90 ± 1.20 µg/mL
same,IC50 Fibroblasts,[2],95.79 ± 3.24 µg/mL
same,IC50 HeLa,"cervical cancer HeLa; MTT, 24 h treatment",35.76 ± 1.72 µg/mL
same,caspase-8 activity (in words),caspase-8,notable increase
same,amount of cells in subG0 phase (in words),AGS cells [3],significant increase
same,cells in G0/G1 phase,AGS cells [3],35.6%
same,cells in G2/M phase,AGS cells [3],32.4%
same,cells in S phase,AGS cells [3],14.2%
same,"changes in percentages of live, depolarized, and dead cells versus control",AGS cells [4],no observable changes
same,caspase-9 activity (in words),caspase-9,notable increase
"CC1(C)S[C@@H]2[C@H](NC(=O)[C@H](N)c3ccccc3)C(=O)N2[C@H]1C(=O)O [ampicillin, reference compound]",MIC,[5],125 µg/mL
same,MIC,[6],62.5 µg/mL
same,MIC,[7],16 µg/mL
same,MIC,[8],3.9 µg/mL
same,MIC,Campylobacter coli ZMF,16 µg/mL
same,MIC,Campylobacter jejuni ZMF,32 µg/mL
same,MIC,[9],3.2 µg/mL
same,MIC,[10],0.08 µg/mL
same,MIC,[11],0.312 µg/mL
same,MIC,[12],0.16 µg/mL
same,MIC,[13],0.5 µg/mL
"Cc1cc(S(=O)(=O)Nc2ccc(C(=O)/C=C/c3ccc(F)cc3)cc2)c(Cl)cc1Cl [Compound 6, (E)-2,4-Dichloro-N-{4-[3-(4-Fluorophenyl)acryloyl]phenyl}-5-Methylbenzenesulfonamide]",IC50,"[1]; MTT, 24 h treatment",4.49 ± 0.44 µg/mL
same,selectivity index AGS,[1],6.01
same,IC50,[2],27 ± 2.29 µg/mL
same,IC50,"cervical cancer HeLa; MTT, 24 h treatment",8.65 ± 0.52 µg/mL
same,selectivity index HeLa,cervical cancer HeLa,3.12
same,IC50,"[14]; MTT, 24 h treatment",1.69 ± 0.2 µg/mL
same,selectivity index HL-60,[14],15.98
same,IC50,neutrophil elastase,181 µM
same,IC50 toward cancer cells,[15],weaker activity
same,MIC,[5],> 500 µg/mL
same,MIC,[6],> 500 µg/mL
same,MIC,[7],> 500 µg/mL
same,MIC,[8],> 500 µg/mL
same,MIC,Campylobacter coli ZMF,> 500 µg/mL
same,MIC,Campylobacter jejuni ZMF,> 500 µg/mL
same,MIC,[9],> 500 µg/mL
same,MIC,[10],> 500 µg/mL
same,MIC,[11],> 500 µg/mL
same,MIC,[12],> 500 µg/mL
same,MIC,[13],> 500 µg/mL
same,% of DPPH radical inhibition,[16],21.85 ± 0.22%
"Cc1cc(S(=O)(=O)Nc2ccc(C(=O)/C=C/c3ccc(Cl)cc3)cc2)c(Cl)cc1Cl [Compound 7, (E)-2,4-Dichloro-N-{4-[3-(4-Chlorophenyl)acryloyl]phenyl}-5-Methylbenzenesulfonamide]",IC50,"[1]; MTT, 24 h treatment",< 1 µg/mL
same,selectivity index AGS,[1],19.08
same,IC50,[2],29.9 ± 3.27 µg/mL
same,IC50,"cervical cancer HeLa; MTT, 24 h treatment",6.34 ± 0.04 µg/mL
same,selectivity index HeLa,cervical cancer HeLa,4.72
same,IC50,"[14]; MTT, 24 h treatment",< 1.57 µg/mL
same,IC50 HL-60,"[14]; MTT, 24 h treatment",1.46 ± 0.20 µg/mL
same,selectivity index HL-60,[14],20.51
same,IC50,neutrophil elastase,53.3 µM
same,MIC,[5],> 500 µg/mL
same,MIC,[6],> 500 µg/mL
same,MIC,[7],> 500 µg/mL
same,MIC,[8],> 500 µg/mL
same,MIC,Campylobacter coli ZMF,> 500 µg/mL
same,MIC,Campylobacter jejuni ZMF,> 500 µg/mL
same,MIC,[9],> 500 µg/mL
same,MIC,[10],> 500 µg/mL
same,MIC,[11],> 500 µg/mL
same,MIC,[12],> 500 µg/mL
same,MIC,[13],> 500 µg/mL
same,% of DPPH radical inhibition,[16],18.70 ± 0.04%
